What was measured:
[1] = target: T1, Glutamate receptor ionotropic, AMPA (Rattus norvegicus) (UniProt P19491+P19492+P19493+P19490); test: Positive allosteric modulation of AMPA receptor in embryonic rat brain cells assessed as potentiation of membrane depolarization after 3 mins by fluorescence assay relative to AMPA; type: cell-based
[2] = target: T1, Glutamate receptor ionotropic, AMPA (Rattus norvegicus); test: Positive allosteric modulation of AMPA receptor in embryonic rat brain cells assessed as concentration required for 2-fold increase in AMPA-induced membrane depolarization after 3 mins by fluorescence assay; type: cell-based
[3] = target: Glutamate receptor ionotropic, AMPA (Rattus norvegicus, UniProt P19490+P19491+P19492+P19493); test: Positive allosteric modulation of AMPA receptor in embryonic rat brain cells assessed as potentiation of AMPA-induced membrane depolarization after 3 mins by fluorescence assay; type: cell-based
[4] = Stability of the compound in PBS at pH 7.4 at 1 mM after 24 hrs at 25 degC HPLC analysis; type: physicochemical; conditions: buffer, pH 7.4, 24 h, 1000 µM
[5] = Stability of the compound in PBS at pH 1 at 1 mM after 24 hrs at 25 degC HPLC analysis; type: physicochemical; conditions: buffer, pH 1, 24 h, 1000 µM

Row | Compound | max activation [1] [%] | Activity [2] [µM] | EC50 [3] [µM] | Stability [4] | Stability [5]
1 | CCN(C(=O)c1ccc2c(c1)S(=O)(=O)NCN2C)c1ccccc1 | < 200 | > 100 | – | – | –
2 | CCCc1ccc(OC(=O)c2ccc3c(c2)S(=O)(=O)NCN3CC)cc1 | < 200 | > 100 | – | – | –
3 | COc1ccccc1OC(=O)c1ccc2c(c1)S(=O)(=O)NCN2C | 410 | 6.4 | 7.27 | – | –
4 | CN1CNS(=O)(=O)c2cc(C(=O)Nc3ccccc3)ccc21 | < 200 | > 100 | – | – | –
5 | COc1ccccc1OC(=O)c1ccc2c(c1)S(=O)(=O)NCN2 | < 200 | > 100 | – | – | –
6 | CCOc1ccccc1OC(=O)c1ccc2c(c1)S(=O)(=O)NCN2C | > 360 | 7.08 | – | – | –
7 | CN1CNS(=O)(=O)c2cc(C(=O)Oc3ccccc3)ccc21 | 550 | 3.66 | 3.65 | Stable | Stable
8 | CN1CNS(=O)(=O)c2cc(C(=O)N(C)c3ccccc3)ccc21 | < 200 | > 100 | – | – | –
9 | CCCc1ccccc1OC(=O)c1ccc2c(c1)S(=O)(=O)NCN2CC | < 200 | > 100 | – | – | –
10 | Cc1ccccc1OC(=O)c1ccc2c(c1)S(=O)(=O)NCN2C | 410 | 0.94 | 1.72 | – | –
11 | CCc1ccccc1OC(=O)c1ccc2c(c1)S(=O)(=O)NCN2C | < 200 | > 100 | – | – | –
12 | CCN1CNS(=O)(=O)c2cc(C(=O)Nc3ccccc3)ccc21 | < 200 | > 100 | – | – | –
13 | Cc1cccc(OC(=O)c2ccc3c(c2)S(=O)(=O)NCN3C)c1 | < 200 | > 100 | – | – | –

Continued, values first:

Row | max activation [1] [%] | Activity [2] [µM] | EC50 [3] [µM] | Stability [4] | Stability [5] | Compound
14 | < 200 | > 100 | – | – | – | CCN1CNS(=O)(=O)c2cc(C(=O)Oc3ccc(C)cc3)ccc21
15 | < 200 | > 100 | – | – | – | CCc1ccccc1OC(=O)c1ccc2c(c1)S(=O)(=O)NCN2CC
16 | 200 | > 35 | – | – | – | CCN1CNS(=O)(=O)c2cc(C(=O)Oc3cccc(OC)c3)ccc21
17 | < 200 | > 100 | – | – | – | CCN1CNS(=O)(=O)c2cc(C(=O)Oc3ccc(OC)cc3)ccc21
18 | 380 | 10.6 | – | – | – | CCN1CNS(=O)(=O)c2cc(C(=O)Oc3ccccc3OC)ccc21
19 | < 200 | > 100 | – | – | – | CCN1CNS(=O)(=O)c2cc(C(=O)Oc3ccccc3OCc3ccccc3)ccc21
20 | > 270 | 21.6 | – | – | – | CCOc1ccccc1OC(=O)c1ccc2c(c1)S(=O)(=O)NCN2CC
21 | < 200 | > 100 | – | – | – | CN1CNS(=O)(=O)c2cc(C(=O)Oc3ccccc3OCc3ccccc3)ccc21
22 | < 200 | > 100 | – | – | – | CCN1CNS(=O)(=O)c2cc(C(=O)Oc3cccc(C)c3)ccc21
23 | < 200 | > 100 | – | – | – | CCN1CNS(=O)(=O)c2cc(C(=O)Oc3cccc(OCc4ccccc4)c3)ccc21
24 | 330 | 3.48 | 3.91 | – | – | CCN1CNS(=O)(=O)c2cc(C(=O)Oc3ccccc3C)ccc21
25 | < 200 | > 100 | – | – | – | CCN1CNS(=O)(=O)c2cc(C(=O)OCCc3ccccc3)ccc21
26 | < 200 | > 100 | – | – | – | CCN1CNS(=O)(=O)c2cc(C(=O)OCc3ccccc3)ccc21

Reference: ChEMBL document CHEMBL3217522, “New substituted aryl esters and aryl amides of 3,4-dihydro-2H-1,2,4-benzothiadiazine 1,1-dioxides as positive allosteric modulators of AMPA receptors” (Medchemcomm, 2011)
